This note sets out measurements from PubChem BioAssay AID624285 (Broad Institute, 2012).

Several values for one entry are separate records, joined by “and”; a condition that tells them apart may be missing. Equal values may be shown once. Activity calls are given as the source filed them.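 Rule for the calls: active = signal-decreasing dose-response curve whose fitted half-maximal concentration is at or below twice the highest valid tested dose; inconclusive = flat fit at 30 to 70% signal loss, or poor fit; inactive = the rest.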

Experiment [1] concerns NIH3T3/HeLa viability, CellTiter-Glo ATP luminescence, 24 h. Put plainly: cell viability loss after compound exposure – 24 h, luminescence, cherry-picked samples, cytotoxicity control for PDI inhibitor project, dose response (AID 624285).
Assay in experiment [2]: as above
The settings on record: NIH3T3/HeLa viability, CellTiter-Glo ATP luminescence, 24 h; at 35 µM (top of the series). On the technique in general: In ATP-based viability assays light output follows the ATP content of the culture.

The AC50 is the midpoint of the concentration-response curve, whichever way the signal moves.

Regarding `COCCN(CC(=O)Nc1ccccc1C(F)(F)F)C(=O)/C=C/c1cc(Cl)c2c(c1)OCCO2`, the AC50 in experiment [1] is > 70 µM (inactive).

For the compound `COc1ccc(C2c3ccc(O)cc3Oc3ncn4nc(-c5cccnc5)nc4c32)cc1OC` (configuration not stated), in experiment [1], the AC50 is 30.6 µM.

As to `CN(C)CCCN(C(=O)c1ccc(S(=O)(=O)N2CCCc3ccccc32)cc1)c1nc2ccc(F)cc2s1`, the AC50 in experiment [1] is 18.2 µM.

With `CC[C@]12c3[nH]c4cc(-c5ccco5)ccc4c3CCN1C(=O)[C@@H](CC(=O)NCc1ccc(OC)c(OC)c1)C[C@@H]2C(=O)N1CCN(C(=O)c2ccco2)CC1`, in experiment [1], the AC50 was > 70 µM (inactive).

`O=C(Nc1ccc(Br)cc1F)c1cccnc1`: the AC50 in experiment [1] was > 70 µM (inactive).

As to `C[C@@H]1CN([C@@H](C)CO)C(=O)Cc2cc(NC(=O)Nc3ccccc3)ccc2O[C@@H]1CN(C)Cc1ccccc1`, the AC50 in experiment [1] is > 60 µM (inactive).

Consider `CCc1cc(OCCCCNCc2ccccc2)ccc1Cl`, for which, in experiment [1], the AC50 was 21.5 µM.

For the compound `C[C@H]1CN([C@@H](C)CO)C(=O)c2cc(NC(=O)Cc3cn(C)c4ccccc34)ccc2O[C@@H]1CN(C)S(=O)(=O)c1ccc(F)cc1`, the AC50 in experiment [1] was > 70 µM (inactive).

`CC[C@]12c3[nH]c4cc(-c5ccco5)ccc4c3CCN1C(=O)[C@@H](CC(=O)NCC13CC4CC(CC(C4)C1)C3)C[C@@H]2C(=O)N1CCN(C(=O)c2ccco2)CC1`: the AC50 in experiment [1] is > 70 µM (inactive).

As to `C[C@@H]1CN([C@H](C)CO)C(=O)c2cccc(NS(C)(=O)=O)c2O[C@H]1CN(C)Cc1ccc(Oc2ccccc2)cc1`, in experiment [1], the AC50 was > 70 µM (inactive).

Turning to `CCCCC(=O)OC1CCC2C3CCc4cc(O)ccc4C3CCC12C` (configuration not stated), in experiment [1], the half-maximal activity concentration (AC50) was 27.3 µM.

Consider `COc1ccc(C(=O)c2c(C)c3cc(C)ccc3n2CC(O)CN2CCOCC2)cc1` (configuration not stated), for which, in experiment [1], the AC50 was > 70 µM (inactive).

For the compound `CC(=O)c1cc(-c2ccccc2)n(CC(=O)Nc2cccc(C)c2)c1C`, the AC50 in experiment [1] was > 70 µM (inactive).

Consider `CCCN(CCC)S(=O)(=O)c1ccc(C(=O)Nc2nnc(COC)o2)cc1`, for which the AC50 in experiment [1] is > 70 µM (inactive).

On to `Cc1[nH][nH]c(=O)c1C(c1c(C)[nH][nH]c1=O)c1cn(Cc2ccccc2Cl)c2ccccc12`, for which the AC50 in experiment [1] was > 70 µM (inactive).

Regarding `CCOC(=O)c1c(CN(C)C)n(-c2ccc(C)cc2)c2cc(Br)c(O)cc12`, the AC50 in experiment [1] is > 70 µM (inactive).

With `CC1(c2ccc3ccccc3c2)NC(=O)N(CC(=O)Nc2cccc(S(=O)(=O)N3CCOCC3)c2)C1=O` (configuration not stated), the AC50 in experiment [1] was > 70 µM (inactive).

Turning to `CN1CCN(CCOC2c3ccccc3CSc3ccc(Cl)cc32)CC1` (configuration not stated), the AC50 in experiment [1] is 30.5 µM.

As to `Cc1nnc(SCc2cc(=O)oc3cc(O)ccc23)n1Cc1ccccc1`, the AC50 in experiment [1] is > 70 µM (inactive).

`O=C(CCC1CCCCC1)NCCN1C2=NC[C@H](Cc3ccc(O)cc3)N2C[C@H]1Cc1ccc(O)cc1`: the AC50 in experiment [1] was > 70 µM (inactive).

On to `COc1cc2cc(C(=O)N3CC(COS(C)(=O)=O)c4ccc(O)cc43)[nH]c2c(OC)c1OC` (configuration not stated), for which, in experiment [1], the AC50 is 0.0396 µM.

Regarding `CCOC(=O)Oc1c(OC)cc(C(=O)O[C@@H]2C[C@@H]3CN4CCc5c([nH]c6cc(OC)ccc56)[C@H]4C[C@@H]3[C@H](C(=O)OC)[C@H]2OC)cc1OC`, the AC50 in experiment [1] is 27.3 µM.

As for `COc1c(Br)cc(C(N)=O)cc1OCc1ccccc1`, in experiment [1], the AC50 is > 70 µM (inactive).

As to `O=C(/C=C/c1ccc(N2CCCCC2)c([N+](=O)[O-])c1)c1ccc(O)cc1`, the AC50 in experiment [1] was 12 µM.

Regarding `CN1CCN(Cc2nc3ccccc3c(=O)n2Cc2nc(-c3ccc4ccccc4c3)cs2)CC1`, the AC50 in experiment [1] is 7.27 µM.

For the compound `O=C(CCS(=O)(=O)c1ccccc1)N(CCCN1CCOCC1)c1nc2ccccc2s1`, the AC50 in experiment [1] was 14.2 µM.

Consider `COc1ccc(C2c3ccc(O)cc3Oc3ncn(CCN4CCOCC4)c(=N)c32)cc1OC` (configuration not stated), for which the AC50 in experiment [1] was > 70 µM (inactive).

Take `CCOC(=O)C1(CCOc2ccccc2)CCN(Cc2ccccc2O)CC1`: the AC50 in experiment [1] was > 70 µM (inactive).

For the compound `O=C(NCCc1c[nH]c2ccccc12)/C(=C\c1cccnc1)NC(=O)c1ccccc1Br`, in experiment [1], the AC50 was > 70 µM (inactive).

`CCOC(=O)c1c(CN2CCN(C)CC2)n(C)c2cc(Br)c(OC)cc12`: the AC50 in experiment [1] was 22.2 µM.

With `CC(=O)Oc1ccc(C2OC(=O)c3ccccc3N2C(C)=O)cc1` (configuration not stated), in experiment [1], the AC50 is > 70 µM (inactive).

For `Cc1ccc(N(Cc2ccccc2)C(=O)c2cccc(S(=O)(=O)N3CC(C)OC(C)C3)c2)cc1` (configuration not stated), in experiment [1], the AC50 is > 70 µM (inactive).

As for `CCOC(=O)C1=C(c2ccccc2)N=c2s/c(=C\c3cccc(O)c3)c(=O)n2C1c1cccs1` (configuration not stated), the AC50 in experiment [1] is 23 µM.

Take `CCN1C[C@]2(COC(=O)c3ccccc3N)CC[C@H](OC)C34[C@@H]5C[C@H]6[C@H](OC)[C@@H]5[C@](O)(C[C@@H]6OC)[C@@](O)([C@H]13)[C@@H](OC)[C@@H]42`: the AC50 in experiment [1] was > 70 µM (inactive).

For `CC(=O)Oc1ccccc1C(=O)C=Cc1cccc([N+](=O)[O-])c1`, in experiment [1], the AC50 is 5.89 µM.

On to `CC12CCC3c4ccc(O)cc4CCC3C1CCC2=O` (configuration not stated), for which the AC50 in experiment [1] was > 70 µM (inactive).

Regarding `CCSc1nnc([C@H](Cc2c[nH]c3ccccc23)NC(=O)OC(C)(C)C)o1`, in experiment [1], the AC50 is > 70 µM (inactive).

On to `Cc1c(O)ccc2c(CN3CCN(C/C=C/c4ccccc4)CC3)cc(=O)oc12`, for which, in experiment [1], the AC50 is > 70 µM (inactive).

On to `Cn1cnnc1Sc1ccc(/C=C/C(=O)c2ccc(O)cc2)cc1[N+](=O)[O-]`, for which, in experiment [1], the AC50 is 12.3 µM.

Take `Cc1ccc(C)c(N2CCN(S(=O)(=O)c3ccc4c(c3)OCCO4)CC2)c1`: the AC50 in experiment [1] is > 70 µM (inactive).

For `O=c1[nH]c(C2CCN(S(=O)(=O)c3ccc(C(F)(F)F)cc3)CC2)nc2c1nnn2Cc1ccc(F)cc1`, in experiment [2], the activity change, negative = cytotoxicity was -22.8% (inactive).

Regarding `CCCCC1CCC(c2nc(-c3ccccn3)no2)CC1` (configuration not stated), in experiment [2], the activity change, negative = cytotoxicity is -12.5% (inactive).

With `Cc1cc2c3c(c1)C1(C(=O)N3C(C)(C)CC2C)C(C#N)=C(N)Oc2n[nH]c(C)c21` (configuration not stated), the activity change, negative = cytotoxicity in experiment [2] was -11.6% (inactive).

Regarding `O=C1/C(=C\c2ccc(O)cc2)CCC1CNc1ccc(Cl)cc1` (configuration not stated), the activity change, negative = cytotoxicity in experiment [2] is -7.39% (inactive).

Consider `O=C(NCc1cccs1)C1CC(c2ccc(F)cc2)=NO1` (configuration not stated), for which the activity change, negative = cytotoxicity in experiment [2] was -16.4% (inactive).

Regarding `CN(C)c1ccc(C2(O)C(=O)c3ccccc3C2=O)cc1`, the activity change, negative = cytotoxicity in experiment [2] is -6.27% (inactive).

`C=CCn1c(SCC(=O)Nc2ccc(N(C)C)cc2)nnc1-c1cccc(C)c1`: in experiment [2], the activity change, negative = cytotoxicity is -10.1% (inactive).

As for `C[C@@H]1CN([C@H](C)CO)C(=O)Cc2cc(NC(=O)Nc3ccccc3)ccc2O[C@H]1CN(C)Cc1ccccc1`, the activity change, negative = cytotoxicity in experiment [2] is 1.49% (inactive).

With `O=C(CN1CCN(c2ccc(O)cc2)CC1)Nc1cc(S(=O)(=O)N2CCOCC2)ccc1Cl`, in experiment [2], the activity change, negative = cytotoxicity was -13.3% (inactive).

As to `O=C(CCc1ccc(O)cc1)NN=Cc1cc(Br)ccc1O`, the activity change, negative = cytotoxicity in experiment [2] was -12.9% (inactive).

In the case of `O=C1CC(C(=O)N2CCc3ccccc32)CN1c1ccc(F)cc1` (configuration not stated), the activity change, negative = cytotoxicity in experiment [2] is -10.7% (inactive).

In the case of `O=C(/C=C/c1ccccc1)Nc1scc(-c2ccccc2)c1C(=O)O`, the activity change, negative = cytotoxicity in experiment [2] was -11.6% (inactive).

Regarding `CC(C)c1ccc(Nc2nc(CC(=O)O)cs2)cc1`, in experiment [2], the activity change, negative = cytotoxicity is -4.01% (inactive).

On to `COCC(=O)N(C)C1(c2nnnn2CCOC(=O)Nc2ccc(Cl)cc2)CCCCC1`, for which the activity change, negative = cytotoxicity in experiment [2] was -4.92% (inactive).

Regarding `C[C@@H]1CN([C@H](C)CO)C(=O)c2cc(NC(=O)Cc3cn(C)c4ccccc34)ccc2O[C@H]1CN(C)S(=O)(=O)c1ccc(F)cc1`, the activity change, negative = cytotoxicity in experiment [2] is -11.7% (inactive) and -2.14% (inactive).

`Cc1ccc(CN(c2ccc(C(=O)NCc3ccccn3)cc2)S(C)(=O)=O)cc1`: the activity change, negative = cytotoxicity in experiment [2] is -10.4% (inactive).

On to `COc1cc(C(=O)N2CCN(C/C=C/c3ccccc3)CC2)cc(OC)c1OC`, for which, in experiment [2], the activity change, negative = cytotoxicity is -12% (inactive).

As for `CCOC(=O)c1c(CN(CC)CC)n(C)c2cc(Br)c(O)cc12`, the activity change, negative = cytotoxicity in experiment [2] was -10.4% (inactive).

On to `CN(C)C(=O)CSc1n[nH]c(-c2ccco2)n1`, for which the activity change, negative = cytotoxicity in experiment [2] was -5.07% (inactive).

With `C[C@@H]1CN([C@H](C)CO)C(=O)Cc2cc(NC(=O)Nc3ccccc3)ccc2O[C@@H]1CN(C)Cc1ccccc1`, the activity change, negative = cytotoxicity in experiment [2] is -3.74% (inactive).

In the case of `COc1cccc(/C=C2\CCCCC2=O)c1`, in experiment [2], the activity change, negative = cytotoxicity was -7.65% (inactive).

`O=C(NCc1ccccc1)c1cc(C2CCCN(C(=O)C3CCCCC3)C2)on1` (configuration not stated): in experiment [2], the activity change, negative = cytotoxicity was -16.2% (inactive).

`COc1ccc(C2c3ccc(O)cc3Oc3ncn(Cc4ccco4)c(=N)c32)cc1OC` (configuration not stated): the activity change, negative = cytotoxicity in experiment [2] is -14.4% (inactive).

Turning to `C[C@@H]1O[C@@H](Oc2c(-c3ccc(O)c(O)c3)oc3cc(O)cc(O)c3c2=O)[C@H](O)[C@H](O)[C@H]1O`, the activity change, negative = cytotoxicity in experiment [2] is -1.28% (inactive) and -10.2% (inactive).

`CC(C)CCOc1ccc(C2(C)NC(=O)N(CN3CCOCC3)C2=O)cc1` (configuration not stated): the activity change, negative = cytotoxicity in experiment [2] was -15.3% (inactive).

For `Cc1c(-n2cc(C(=O)c3cc(Br)ccc3O)cc(C#N)c2=O)c(=O)n(-c2ccccc2)n1C`, the activity change, negative = cytotoxicity in experiment [2] is -12.8% (inactive).

For the compound `Cc1c(O)ccc2c(CC(=O)N[C@@H](Cc3c[nH]c4ccccc34)C(=O)O)cc(=O)oc12`, the activity change, negative = cytotoxicity in experiment [2] was -8.56% (inactive).

In the case of `Cc1c(O)ccc2c(CN3CCN(CCO)CC3)cc(=O)oc12`, the activity change, negative = cytotoxicity in experiment [2] is -7.06% (inactive).

Regarding `S=C(NCCN1CCOCC1)Nc1ccc(Br)cc1`, the activity change, negative = cytotoxicity in experiment [2] was -9.3% (inactive).

Consider `Cc1noc(C)c1S(=O)(=O)Nc1ccc2c(c1)CC(=O)N([C@H](C)CO)C[C@H](C)[C@H](CN(C)S(=O)(=O)c1ccc(F)cc1)O2`, for which, in experiment [2], the activity change, negative = cytotoxicity is 0.678% (inactive) and -3.98% (inactive).

Take `COc1ccc(CNC(=O)c2ccc(CS(=O)Cc3cccc(Cl)c3)o2)cc1` (configuration not stated): the activity change, negative = cytotoxicity in experiment [2] was -9.18% (inactive).

As for `O=C(C[C@H]1C[C@H](C(=O)N2CCCCC2)[C@@]2(CCc3ccccc3)c3[nH]c4cc(-c5ccco5)ccc4c3CCN2C1=O)NCCC1=CCCCC1`, in experiment [2], the activity change, negative = cytotoxicity was -13% (inactive).
